This is an account of results in patent US20250129067A1 (Progentos Therapeutics, Inc., priority 2021, published 2025).

In general, IC50 refers to the concentration at which inhibition is half-maximal.

Each structure is given as a SMILES string. Where two headings read alike, the source gives them in different places.

Series [1] deals with GPR17+ cells (newly differentiated oligodendrocytes). As to the kind of experiment: In vivo OPC differentiation, GPR17+ cells in brain. The note with it: Mus musculus, po, 24 h, read-out: GPR17 Fold Induction (Over Vehicle).
Procedure: The ability of newly constructed compounds to drive OPC differentiation and myelination in vivo was tested. The ability of these compounds to drive OPC differentiation in vivo was tested using GPR17 as an indicator of newly differentiated oligodendrocytes.
Compounds were delivered PO or IP either QD or BID. Mice were dosed once, transiently, or continuously through the treatment period, which ranged from 1-3 days.
Mice were euthanized by isoflurane exposure and transcardially perfused with 14 mL of PBS (Sigma Cat #P4417-50TAB) followed by 22 mL of 3.2% paraformaldehyde in PBS. The brains were removed and postfixed for a minimum of 24 hours in 20 mL of 3.2% paraformaldehyde.
50-micron floating sections were cut using a Leica VT1200S vibratome. Every 24th section, extending through the antero-posterior extent of the brain, was stained. The selected brain sections were washed three times in PBS for 3 minutes each. The floating sections were incubated in the primary antibodies (see Table 10, below) diluted in blocking solution overnight at room temperature on a shaker. […] The next day, the sections were again washed three times in PBS for 3 minutes each and then incubated in the secondary antibodies diluted in blocking solution for 2 hours at room temperature on a shaker. After incubation, the sections were washed three times in PBS for 3 minutes each and mounted on a slide to be imaged using the Olympus Slide Scanner VS200.
The images were analyzed using a custom protocol developed using Visiopharm software to count GPR17+ cells. Cells were considered GPR17+ if they contained an Olig2 positive nucleus, and intense GPR 17 staining that filled their processes. Statistical analysis was done using one-way ANOVA with multiple comparison in GraphPad Prism software.
For series [2], the system named is Oligodendrocyte progenitor cells (OPCs). As to the kind of experiment: In vitro OPC differentiation assay, MBP expression (immunocytochemistry). The following applies: 72 hours of treatment; fold change over vehicle.
Series [3] has the same test system. As to the kind of experiment: In vitro OPC differentiation assay, GPR17 expression (immunocytochemistry). The following applies: 72 hours, fold change over vehicle; for GPR17 Fold Induction (Over Vehicle; 3 μM): 3 μM (10× concentration, final 0.3 μM).
Procedure: To assess the effects of the PDGFRα inhibitors on OPC differentiation, primary OPCs were cultured and exposed to compounds. The number of newly generated oligodendrocytes was assessed by monitoring GPR17 expression. GPR17 is preferentially expressed in actively differentiating oligodendrocytes, allowing them to be distinguished from precursors and more differentiated oligodendrocytes.
Cortices from postnatal day (P) 1-3 rats were dissected and collected into ice cold Hank's Balanced Salt Solution (HBSS). […] Briefly, the cortical cell suspension was centrifuged and washed with buffer (0.5% BSA in PBS) and labeled with Anti-A2B^5 MicroBeads (10 μL beads per 1×10^7 cells) for 15 minutes at 4° C. Following the incubation, cells were washed once with BSA buffer to remove unlabeled beads. A2B^5 positive cells were eluted on the column using the AutoMACS® (Miltenyi, as per manufacturer's protocol using “Possel-s” program). Eluted cells were further washed twice with OPC growth media. Cell counts were performed using Countess III cell counter (ThermoFisher; AMQAX2000) and cells were plated.
The plates were allowed to sit at room temperature for 15 minutes to ensure proper dispersion of cells in a well. The plates were then transferred to the incubator (37° C.; 5% CO2).
Cells were then incubated for 72 hours at 37° C., 5% CO2 before immunostaining for GPR17 marker expression.
Following 72 hours in culture, cells were fixed with 4% paraformaldehyde for 15 minutes and then washed three times in Dulbecco's phosphate buffered saline (DPBS). Prior to immunostaining, cells were treated with a blocking solution (10% normal goat serum containing 1% BSA and 0.1% Triton® X-100 in DPBS) for 15 minutes at room temperature. Primary antibody (anti-GPR17 at 1:2000; Origene TA811615) was applied to cells overnight at 4° C. in incubation solution containing 1% normal goat serum, 1% BSA, and 0.1% Triton X-100 in DPBS. […] The secondary antibody was applied in incubation solution for 2 hours at room temperature, protected from light.
The number of differentiated GPR17+ cells was normalized to the total nuclei count and percent differentiated GPR17+ cells were reported. Statistical analysis was done using one-way ANOVA with multiple comparisons and post-hoc Tukey test in GraphPad Prism (GraphPad Software).
The target in series [4] is PDGFRα (Homo sapiens (Human), UniProt P16234). As to the kind of experiment: PDGFRα kinase enzyme assay (Promega PDGFRα Kinase Enzyme System, ADP-Glo). Format: biochemical. The note with it: 150 uM ATP. The method, boiled down: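 Read-out was ADP-Glo: remaining ATP depleted, ADP converted to luminescence and compared with a standard curve.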
PDGFRα, sequence (P16234 24-1089): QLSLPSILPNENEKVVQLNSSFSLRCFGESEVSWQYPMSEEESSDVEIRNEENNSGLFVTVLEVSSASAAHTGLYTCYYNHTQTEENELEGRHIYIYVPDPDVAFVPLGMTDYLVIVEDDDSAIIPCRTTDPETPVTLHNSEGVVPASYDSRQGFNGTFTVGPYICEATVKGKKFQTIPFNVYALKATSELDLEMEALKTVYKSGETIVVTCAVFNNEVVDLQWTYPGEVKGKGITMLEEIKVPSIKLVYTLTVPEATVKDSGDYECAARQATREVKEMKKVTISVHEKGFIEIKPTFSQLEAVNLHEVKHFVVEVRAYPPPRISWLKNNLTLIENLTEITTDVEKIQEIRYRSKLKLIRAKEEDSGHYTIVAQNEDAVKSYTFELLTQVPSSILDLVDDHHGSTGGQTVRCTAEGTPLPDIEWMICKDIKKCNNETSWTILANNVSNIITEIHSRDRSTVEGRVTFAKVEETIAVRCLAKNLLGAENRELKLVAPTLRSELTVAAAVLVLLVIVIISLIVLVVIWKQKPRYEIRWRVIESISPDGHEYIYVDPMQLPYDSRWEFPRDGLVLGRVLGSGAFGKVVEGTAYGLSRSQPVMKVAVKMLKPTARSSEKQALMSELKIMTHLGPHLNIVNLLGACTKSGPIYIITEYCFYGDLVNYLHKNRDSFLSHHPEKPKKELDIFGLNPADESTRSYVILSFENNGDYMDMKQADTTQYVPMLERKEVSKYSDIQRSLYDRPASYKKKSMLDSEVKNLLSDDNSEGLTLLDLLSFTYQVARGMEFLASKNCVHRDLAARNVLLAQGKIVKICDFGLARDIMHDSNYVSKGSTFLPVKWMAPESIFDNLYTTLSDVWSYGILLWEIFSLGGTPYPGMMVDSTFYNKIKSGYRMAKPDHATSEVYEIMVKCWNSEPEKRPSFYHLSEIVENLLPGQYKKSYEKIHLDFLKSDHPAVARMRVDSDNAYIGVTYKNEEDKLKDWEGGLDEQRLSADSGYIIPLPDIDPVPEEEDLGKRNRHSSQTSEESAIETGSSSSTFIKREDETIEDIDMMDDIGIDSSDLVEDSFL
(In general: ADP-Glo first removes unused ATP, then detects ADP through luciferase.)

[5] abbreviates: 11-point dose response, 10,000 nM to 0.169 nM, BLQ = below limit of quantitation, read-out: IC50 Values on PDGFRα Kinase Inhibition, IC50.

For `Cn1cc(-c2ccc3c(N4CCN(c5ncc(C(O)CCc6ccccc6)cn5)CC4)cnn3c2)cn1` (stereo not drawn) [Compound 175, 1-(2-(4-(6-(1-methyl-1H-pyrazol-4-yl)pyrazolo[1,5-a]pyridin-3-yl)piperazin-1-yl)pyrimidin-5-yl)-3-phenylpropan-1-ol], in series [1], the fold induction at 3 mg/kg was found to be 5.15. Besides, the “MBP Fold Induction (Over vehicle)” value in series [2] stood at 6.20. The “GPR17 Fold Induction (Over Vehicle; 3 μM)” value in series [3] was found to be 6.34. Also, the IC50 in series [4] (setting [5]) turned out to be 220 nM.
Turning to `CC[C@@H](OC(=O)N1CCN(c2cnn3cc(-c4cnn(C)c4)ccc23)CC1)c1ccccc1` [Compound 80, (1R)-1-(Phenyl)propyl 4-[6-(1-methyl-1H-pyrazol-4-yl)pyrazolo[1,5-a]pyridin-3-yl]piperazine-1-carboxylate], the fold induction at 3 mg/kg in series [1] was 1.64. Moreover, in series [2], the “MBP Fold Induction (Over vehicle)” value worked out at 7.89. Further, in series [3], the “GPR17 Fold Induction (Over Vehicle; 3 μM)” value came out at 8.19. Moreover, the IC50 in series [4] (setting [5]) is 328 nM.
Turning to `CCC(CC)C(O)c1cnc(N2CCN(c3cnn4cc(-c5cnn(C)c5)ccc34)CC2)nc1` (stereo not drawn) [Compound 177, 2-ethyl-1-(2-(4-(6-(1-methyl-1H-pyrazol-4-yl)pyrazolo[1,5-a]pyridin-3-yl)piperazin-1-yl)pyrimidin-5-yl)butan-1-ol], the fold induction at 3 mg/kg in series [1] is 2.37. Further, the “MBP Fold Induction (Over vehicle)” value in series [2] amounted to 32.85. Further, the “GPR17 Fold Induction (Over Vehicle; 3 μM)” value in series [3] is recorded as 10.12. The half-maximal inhibitory concentration (IC50) in series [4] (setting [5]) turned out to be 75.3 nM.
As to `Cn1cc(-c2ccc3c(N4CCN(C(=O)OCc5cccc(C#N)c5)CC4)cnn3c2)cn1` [Compound 272, 3-cyanobenzyl 4-[6-(1-methyl-1H-pyrazol-4-yl)pyrazolo[1,5-a]pyridin-3-yl]piperazine-1-carboxylate], in series [1], the fold induction at 3 mg/kg is 2.47 and the fold induction at 10 mg/kg is 5.93. Besides, the “MBP Fold Induction (Over vehicle)” value in series [2] amounted to 40.13. Further, the “GPR17 Fold Induction (Over Vehicle; 3 μM)” value in series [3] is reported as 6.11. Moreover, the IC50 in series [4] (setting [5]) stood at 865 nM.
As for `Cn1cc(-c2ccc3c(N4CCN(c5ncc(C(O)c6ccccn6)cn5)CC4)cnn3c2)cn1` (stereo not drawn) [Compound 59, (2-{4-[6-(1-methyl-1H-pyrazol-4-yl)pyrazolo[1,5-a]pyridin-3-yl]piperazin-1-yl}pyrimidin-5-yl) (pyridin-2-yl)methanol], the fold induction at 3 mg/kg in series [1] is 10.6. In series [2], the “MBP Fold Induction (Over vehicle)” value is given as 2.56. For the same molecule, in series [3], the “GPR17 Fold Induction (Over Vehicle; 3 μM)” value was 5.49. Besides, the half-inhibitory concentration (IC50) in series [4] (setting [5]) turned out to be 168 nM.
Regarding `Cn1cc(-c2ccc3c(N4CCN(C(=O)OCC(C)(C)C)CC4)cnn3c2)cn1` [Compound 3, 2,2-dimethylpropyl 4-[6-(1-methyl-1H-pyrazol-4-yl)pyrazolo[1,5-a]pyridin-3-yl]piperazine-1-carboxylate], the fold induction at 3.3 mg/kg in series [1] came out at 1.45. Also, the “MBP Fold Induction (Over vehicle)” value in series [2] was 1.56. Moreover, the “GPR17 Fold Induction (Over Vehicle; 3 μM)” value in series [3] is on record as 4.12. The “GPR17 Fold Induction (Over Vehicle; 5 μM)” value in series [3] (5 μM (10× concentration, final 0.5 μM)) was 3.69. Moreover, the half-inhibitory concentration (IC50) is < 1000 nM in series [4] (20 ng purified PDGFRα, Poly (Glu4Tyr1) substrate, two hours, 11-point dose response, read-out: IC50 Values on PDGFRα Kinase Inhibition) and 883 nM in series [4] (setting [5]).
Take `Cc1ccc([C@@H](C)OC(=O)N2CCN(c3cnn4cc(-c5cnn(C)c5)ccc34)CC2)cc1` [Compound 267, (1R)-1-(4-methylphenyl)ethyl 4-[6-(1-methyl-1H-pyrazol-4-yl)pyrazolo[1,5-a]pyridin-3-yl]piperazine-1-carboxylate]: in series [1], the fold induction at 3 mg/kg turned out to be 5.75 and the fold induction at 6 mg/kg was 7.52. For the same molecule, the “MBP Fold Induction (Over vehicle)” value in series [2] worked out at 2.33. Further, the “GPR17 Fold Induction (Over Vehicle; 3 μM)” value in series [3] came to 5.62. In addition, in series [4] (11-point dose response, 10,000 nM to 0.169 nM, BLQ = below limit of quantitation), the “IC50 Values on PDGFRα Kinase Inhibition, IC50 (nM)” value was “BLQ”.
Turning to `COc1ccc(Cc2cnc(N3CCN(c4cnn5cc(-c6cnn(C)c6)ccc45)CC3)nc2)cc1` [Compound 254, 3-(4-(5-(4-methoxybenzyl)pyrimidin-2-yl)piperazin-1-yl)-6-(1-methyl-1H-pyrazol-4-yl)pyrazolo[1,5-a]pyridine], the fold induction at 10 mg/kg in series [1] was 10.7. For the same molecule, the “MBP Fold Induction (Over vehicle)” value in series [2] amounted to 4.04. In addition, the “GPR17 Fold Induction (Over Vehicle; 3 μM)” value in series [3] is on record as 6.77. In series [4] (setting [5]), the IC50 was found to be 267 nM.
